The values below come from patent US11247965B2 (VenatoRx Pharmaceuticals, Inc., priority 2017, dated 2022).

A value given as a limit tells only on which side of the number the result lay.

For data set [1], the system named is HBV replication in HepAD38 cells. As to the kind of experiment: Anti-HBV activity in HepAD38 cells, extracellular HBV DNA by QPCR. It counts as cell-based, HBV (genotype D, serotype ayw). Conditions: Hepatitis B virus, HePAD38, 168 h, read-out: Anti-HBV EC50, HepAD38 cells, extracellular HBV DNA by QPCR, 7 days of incubation. A digest of the protocol: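 HepAD38 cells (HepG2 with tet-repressible HBV genotype D genome) seeded overnight, tetracycline removed, then treated 7 days with compounds (half-log dilutions, 30 μM–10 nM; 1:200 from DMSO). Supernatant HBV DNA quantified by QPCR against standard curve; % inhibition vs vehicle, EC50 by 4-parameter fit.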

Data set [2] in a line: In vitro cytotoxicity, MTT cell viability assay in HepG2 cells. Type of data set: cell-based. Conditions: human, Cytotoxicity CC50. A digest of the protocol:
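HepG2 cells incubated 7 days at 37 °C, 5% CO2 with compounds from 30 μM to 1.0 nM (8 half-log dilutions). Viability read as MTT formazan absorbance at 492 nm, normalised to vehicle controls; CC50 from 4-parameter non-linear regression.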

Take `CC(C)NC(=O)C(F)(F)c1cc(C(=O)Nc2ccc(F)c(F)c2)ccc1F` [Example 7, 3-(1,1-difluoro-2-(isopropylamino)-2-oxoethyl)-N-(3,4-difluorophenyl)-4-fluorobenzamide]: the EC50 in data set [1] fell in the range of 5 to 30 µM. This compound also displayed a 50% cytotoxic concentration (CC50) at 7 days in data set [2] of 5 to 30 µM.
For `Cc1cc(NC(=O)c2ccc(F)c(C(F)(F)C(=O)N3[C@@H]4CC[C@H]3C[C@H](N)C4)c2)ccc1F` [Example 228, 3-(2-((1R,3s,5S)-3-amino-8-azabicyclo[3.2.1]octan-8-yl)-1,1-difluoro-2-oxoethyl)-4-fluoro-N-(4-fluoro-3-methylphenyl)benzamide], in data set [1], the half-maximal effective concentration (EC50) is under 5 µM. This compound came in with a cytotoxic concentration (CC50) at 7 days in data set [2] of 5 to 30 µM.
As to `Cc1cc(NC(=O)c2ccc(F)c(C(F)(F)C(=O)N3[C@@H]4COC[C@H]3CN(S(N)(=O)=O)C4)c2)ccc1F` [Example 266, 3-(1,1-difluoro-2-oxo-2-((1R,5S)-7-sulfamoyl-3-oxa-7,9-diazabicyclo[3.3.1]nonan-9-yl)ethyl)-4-fluoro-N-(4-fluoro-3-methylphenyl)benzamide], the EC50 in data set [1] is under 5 µM. Also, in data set [2], the CC50 at 7 days is over 30 µM.
The corresponding values for `Cc1cc(NC(=O)c2cc(C(F)(F)C(=O)N3CCC(O)CC3)c(Cl)cc2C)ccc1F` [Example 67, 4-chloro-5-(1,1-difluoro-2-(4-hydroxypiperidin-1-yl)-2-oxoethyl)-N-(4-fluoro-3-methylphenyl)-2-methylbenzamide] are under 5 µM and over 30 µM.
Take `CC[C@H](C)NC(=O)C(F)(F)c1cc(C(=O)Nc2ccc(F)c(C)c2)cn1C` [Example 103, (S)-5-(2-(sec-butylamino)-1,1-difluoro-2-oxoethyl)-N-(4-fluoro-3-methylphenyl)-1-methyl-1H-pyrrole-3-carboxamide]: in data set [1], the 50% effective concentration (EC50) is under 5 µM. This compound also displayed a half-maximal cytotoxic concentration (CC50) at 7 days in data set [2] of 5 to 30 µM.
With `Cc1cc(NC(=O)c2ccc(F)c(C(F)(F)C(=O)N3CCc4[nH]ncc4C3)c2)ccc1F` [Example 204, 3-(1,1-difluoro-2-oxo-2-(1,4,6,7-tetrahydro-5H-pyrazolo[4,3-c]pyridin-5-yl)ethyl)-4-fluoro-N-(4-fluoro-3-methylphenyl)benzamide], the EC50 in data set [1] was under 5 µM. Besides, the cytotoxic concentration (CC50) at 7 days in data set [2] was in the range of 5 to 30 µM.
Consider `Cc1cc(NC(=O)c2ccc(F)c(C(F)(F)C(=O)N3[C@H](C)CN(S(C)(=O)=O)C[C@@H]3C)c2)ccc1F` [Example 293, 3-(2-((2S,6R)-2,6-dimethyl-4-(methylsulfonyl)piperazin-1-yl)-1,1-difluoro-2-oxoethyl)-4-fluoro-N-(4-fluoro-3-methylphenyl)benzamide], for which the EC50 in data set [1] was under 5 µM. This compound yielded a CC50 at 7 days in data set [2] of 5 to 30 µM.
The corresponding values for `Cc1cc(NC(=O)c2ccc(C(F)(F)C(=O)NC(C)(C)CO)s2)ccc1F` [Example 82, 5-(1,1-difluoro-2-((1-hydroxy-2-methylpropan-2-yl)amino)-2-oxoethyl)-N-(4-fluoro-3-methylphenyl)thiophene-2-carboxamide] are over 30 µM and over 30 µM.
In the same order, the values of `Cc1cc(NC(=O)c2ccnc(C(F)(F)C(=O)N3C4CC[C@@H]3C[C@@H](C(=O)O)C4)c2)ccc1F` [Example 244, (1R,3s,5S)-8-(2,2-difluoro-2-(4-((4-fluoro-3-methylphenyl)carbamoyl)pyridin-2-yl)acetyl)-8-azabicyclo[3.2.1]octane-3-carboxylic acid] are 5 to 30 µM and 5 to 30 µM.
The corresponding values for `O=C(Nc1ccc(F)c(F)c1)c1ccc(F)c(C(F)(F)C(=O)N2CCCC(CO)C2)c1` (stereo not shown) [Example 49, 3-(1,1-difluoro-2-(3-(hydroxymethyl)piperidin-1-yl)-2-oxoethyl)-N-(3,4-difluorophenyl)-4-fluorobenzamide] are under 5 µM and over 30 µM.
As to `O=C(Nc1ccc(F)c(F)c1)c1ccc(F)c(C(F)(F)C(=O)N2CC[C@H](O)C2)c1` [Example 12, (S)-3-(1,1-difluoro-2-(3-hydroxypyrrolidin-1-yl)-2-oxoethyl)-N-(3,4-difluorophenyl)-4-fluorobenzamide], the concentration for a half-maximal effect (EC50) in data set [1] fell in the range of 5 to 30 µM. The compound also returned a CC50 at 7 days in data set [2] of 5 to 30 µM.
`Cc1cc(NC(=O)c2ccc(F)c(C(F)(F)C(=O)N3C4CC[C@@H]3C[C@@H](C(=O)O)C4)c2)ccc1F` [Example 259, (1R,3s,5S)-8-(2,2-difluoro-2-(2-fluoro-5-((4-fluoro-3-methylphenyl)carbamoyl)phenyl)acetyl)-8-azabicyclo[3.2.1]octane-3-carboxylic acid]: the half-maximal effective concentration (EC50) in data set [1] was under 5 µM. Moreover, the 50% cytotoxic concentration (CC50) at 7 days in data set [2] is over 30 µM.
`CC(C)(CCO)NC(=O)C(F)(F)c1cc(C(=O)Nc2ccc(F)c(F)c2)ccc1F` [Example 45, 3-(1,1-difluoro-2-((4-hydroxy-2-methylbutan-2-yl)amino)-2-oxoethyl)-N-(3,4-difluorophenyl)-4-fluorobenzamide]: the EC50 in data set [1] was under 5 µM. The half-maximal cytotoxic concentration (CC50) at 7 days in data set [2] is 5 to 30 µM.
In the same order, the values of `Cc1cc(NC(=O)c2cc(C(F)(F)C(=O)NC(C)(C)C)n(C)c2C)ccc1F` [Example 106, 5-(2-(tert-butylamino)-1,1-difluoro-2-oxoethyl)-N-(4-fluoro-3-methylphenyl)-1,2-dimethyl-1H-pyrrole-3-carboxamide] are under 5 µM and 5 to 30 µM.
Consider `Cc1cc(NC(=O)c2cc(C(F)(F)C(=O)N3[C@@H]4CC[C@H]3C[C@H](O)C4)ccc2F)ccc1F` [Example 220, 5-(1,1-difluoro-2-((1R,3s,5S)-3-hydroxy-8-azabicyclo[3.2.1]octan-8-yl)-2-oxoethyl)-2-fluoro-N-(4-fluoro-3-methylphenyl)benzamide], for which the EC50 in data set [1] was under 5 µM. The CC50 at 7 days in data set [2] is 5 to 30 µM.
On to `CNS(=O)(=O)N1C[C@@H](C)N(C(=O)C(F)(F)c2cc(C(=O)Nc3ccc(F)c(C)c3)ccc2F)[C@@H](C)C1` [Example 291, 3-(2-((2S,6R)-2,6-dimethyl-4-(N-methylsulfamoyl)piperazin-1-yl)-1,1-difluoro-2-oxoethyl)-4-fluoro-N-(4-fluoro-3-methylphenyl)benzamide], for which, in data set [1], the concentration giving a half-maximal response (EC50) was under 5 µM. This compound also displayed a CC50 at 7 days in data set [2] of 5 to 30 µM.
The corresponding values for `CC(=O)N[C@@H]1C[C@H]2CC[C@@H](C1)N2C(=O)C(F)(F)c1cc(C(=O)Nc2ccc(F)c(C)c2)ccc1F` [Example 227, 3-(2-((1R,3s,5S)-3-acetamido-8-azabicyclo[3.2.1]octan-8-yl)-1,1-difluoro-2-oxoethyl)-4-fluoro-N-(4-fluoro-3-methylphenyl)benzamide] are under 5 µM and 5 to 30 µM.
The corresponding values for `Cc1cc(NC(=O)c2ccc(F)c(C(F)(F)C(=O)N3CCC(O)CC3)c2)ccc1F` [Example 29, 3-(1,1-difluoro-2-(4-hydroxypiperidin-1-yl)-2-oxoethyl)-4-fluoro-N-(4-fluoro-3-methylphenyl)benzamide] are under 5 µM and over 30 µM.
In the same order, the values of `CC(=O)NC1CCN(C(=O)C(F)(F)c2cc(C(=O)Nc3ccc(F)c(C)c3)ccc2N)CC1(C)C` (stereo not shown) [Example 311, 3-(2-(4-acetamido-3,3-dimethylpiperidin-1-yl)-1,1-difluoro-2-oxoethyl)-4-amino-N-(4-fluoro-3-methylphenyl)benzamide] are under 5 µM and over 30 µM.
As for `O=C(Nc1ccnc(Cl)c1)c1ccc(F)c(C(F)(F)C(=O)N2[C@@H]3CC[C@H]2C[C@@H](O)C3)c1` [Example 196, N-(2-chloropyridin-4-yl)-3-(1,1-difluoro-2-((1R,3r,5S)-3-hydroxy-8-azabicyclo[3.2.1]octan-8-yl)-2-oxoethyl)-4-fluorobenzamide], in data set [1], the EC50 was under 5 µM. Further, the cytotoxic concentration (CC50) at 7 days in data set [2] is under 5 µM.
With `Cc1ccc(C(=O)Nc2ccc(F)c(F)c2)cc1C(F)(F)C(=O)N1CCC(O)CC1` [Example 10, 3-(1,1-difluoro-2-(4-hydroxypiperidin-1-yl)-2-oxoethyl)-N-(3,4-difluorophenyl)-4-methylbenzamide], the EC50 in data set [1] was in the range of 5 to 30 µM. The 50% cytotoxic concentration (CC50) at 7 days in data set [2] fell in the range of 5 to 30 µM.
Consider `Cc1cc(NC(=O)c2ccc(F)c(C(F)(F)C(=O)N3CCC(NS(C)(=O)=O)C(C)(C)C3)c2)ccc1F` (stereo not shown) [Example 286, 3-(2-(3,3-dimethyl-4-(methylsulfonamido)piperidin-1-yl)-1,1-difluoro-2-oxoethyl)-4-fluoro-N-(4-fluoro-3-methylphenyl)benzamide], for which the 50% effective concentration (EC50) in data set [1] was under 5 µM. In addition, the CC50 at 7 days in data set [2] fell in the range of 5 to 30 µM.
The corresponding values for `O=C(Nc1ccc(F)c(F)c1)c1ccc(F)c(C(F)(F)C(=O)NCc2ccncc2)c1` [Example 51, 3-(1,1-difluoro-2-oxo-2-((pyridin-4-ylmethyl)amino)ethyl)-N-(3,4-difluorophenyl)-4-fluorobenzamide] are under 5 µM and over 30 µM.
In the same order, the values of `Cc1cc(NC(=O)c2cc(C(F)(F)C(=O)N3CCC(O)CC3)n(C)c2)ccc1F` [Example 97, 5-(1,1-difluoro-2-(4-hydroxypiperidin-1-yl)-2-oxoethyl)-N-(4-fluoro-3-methylphenyl)-1-methyl-1H-pyrrole-3-carboxamide] are under 5 µM and over 30 µM.
In the same order, the values of `Cc1cc(NC(=O)c2cc(F)cc(C(F)(F)C(=O)N3CCC(O)CC3)c2)ccc1F` [Example 93, 3-(1,1-difluoro-2-(4-hydroxypiperidin-1-yl)-2-oxoethyl)-5-fluoro-N-(4-fluoro-3-methylphenyl)benzamide] are under 5 µM and 5 to 30 µM.
Consider `Cc1cc(NC(=O)c2ccn(C)c2C(F)(F)C(=O)NC2CCC(O)CC2)ccc1F` (stereo not shown) [Example 126, 2-(1,1-difluoro-2-(((1s,4s)-4-hydroxycyclohexyl)amino)-2-oxoethyl)-N-(4-fluoro-3-methylphenyl)-1-methyl-1H-pyrrole-3-carboxamide], for which the concentration giving a half-maximal response (EC50) in data set [1] lay in the range of 5 to 30 µM. The CC50 at 7 days in data set [2] was over 30 µM.
